Reference: patent publication US9328078B2, “Benzofurazan anti-amyloid compounds and methods” (Treventis Corporation, priority 2012, dated 2016)
“And” between values parts separate entries of the source, which are not always exact repeats. Equal values may be shown once.

Target: Aβ40 (Homo sapiens, UniProt P05067)
Test: kinetic ThT assay for Aβ aggregation
Assay type: biochemical
Conditions: for IC50: ThT fluorescence, 20 μM Aβ, 37° C., up to 80 hr, parenthesis = compound 1027 in same experiment, read-out: IC50 A β 1-40; for inhibition at 10 µM: compound 10 μM, read-out: % inhib Aβ 40 10 μM; for inhibition at 5 µM: 80 h, read-out: % inhib Aβ 40 (5 μm); for inhibition at 20 µM: read-out: % inhib. A β 40 (20 μM)
Method: Aβ40 (1.0 mg) was pre-treated in a 1.5 mL microfuge tube with HFIP (1 mL) and sonicated for 20 min to disassemble any pre-formed Aβ aggregates. The HFIP was removed with a stream of argon and the Aβ dissolved in Tris base (5.8 mL, 20 mM, pH˜10). The pH was adjusted to 7.4 with concentrated HCl (˜10 μL) and the solution filtered using a syringe filter (0.2 μm) before being used.
The kinetic ThT assay for AP aggregation is similar to that of Chalifour et al (Chalifour et al, 2003, J. Biol. Chem. 278:34874-81). Briefly, pre-treated Aβ40 or Aβ42 (40 μM in 20 mM Tris, pH 7.4) was diluted with an equal volume of 8 μM Thioflavin T (ThT) in Tris (20 mM, pH 7.4, 300 mM NaCl). Aliquots of Aβ/ThT (200 μL) were added to wells of a black polystyrene 96-well plate, followed by 2 μL of a compound in DMSO (variable concentration), or DMSO alone (controls). Incubations were performed in triplicate and were taken to contain 20 μM Aβ, various concentration of compound in 20 mM Tris, pH 7.4, 150 mM NaCl, 1% DMSO. Plates were covered with clear polystyrene lids and incubated at 37° C. in a Tecan Genios microplate reader.
Fluorescence readings (λex=450 nm, λem=480 nm) were taken every 15 min., after first shaking at high intensity for 15 s and allowing to settle for 10 s before each reading. Active compounds attenuated the increase in fluorescence over time that occurred in controls. In FIGS. 1-7, the time this procedure was performed extended to 80 hours (rightmost part of X-axis), at which point fluorescence increase generally reached an asymptote. Applying a definition of DMSO control at 80 hr as 100% aggregation (0% inhibition) and DMSO control at 0 hr as 0% aggregation (100% inhibition), a % inhibition score where higher is better can be calculated for a given concentration of compound. By repeating this procedure over several concentrations, a […] (IC50) can be measured, as is given in the table below for some compounds.
Data is summarized in the table below; numbers given in parenthesis are the values in that particular experiment for compound ID 1027, given as the first entry in this table for comparison.

[1] = DMSO control at 80 hr = 0% inhibition, parenthesis = compound 1027
[2] = compound 5 μm, DMSO control at 80 hr = 0% inhibition, parenthesis = compound 1027
[3] = compound 20 μM, DMSO control at 80 hr = 0% inhibition, parenthesis = compound 1027

Sequence of Aβ40 (P05067 672-711 limits assumed, species assumed): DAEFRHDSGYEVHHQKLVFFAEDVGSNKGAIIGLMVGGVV

Row | Compound | inhibition at 10 µM [1] | inhibition at 5 µM [2] | inhibition at 20 µM [3] | other results
1 | CC1CCCN1c1cc(-c2cccc(C(O)C(F)(F)F)c2)cc2nonc12 (mixture of isomers) [TRV-1379] |  |  |  | IC50: 1650 nM
2 | CC(O)c1cccc(-c2cc(NCc3ccccc3)c3nonc3c2)c1 (stereo not drawn) [TRV-1259] | 66.3% |  |  | 
3 | CC(O)c1cccc(-c2cc(N3CCCC3)c3nonc3c2)c1 (stereo not drawn) [TRV-1310] | 81.5% |  |  | 
4 | CC(O)c1cccc(-c2cc(N(C)Cc3ccccc3)c3nonc3c2)c1 (stereo not drawn) [TRV-1358] | 72.7% |  |  | 
5 | CC(O)c1cccc(-c2cc(N3CCC[C@H]3CO)c3nonc3c2)c1 (stereo partly drawn) [TRV-1359] | 75.2% |  |  | 
6 | OC(c1cccc(-c2cc(N3CCOCC3)c3nonc3c2)c1)C(F)(F)F (stereo not drawn) [TRV-1360] | 58.9% |  |  | 
7 | OC(c1cccc(-c2cc(N3CCCC3)c3nonc3c2)c1)C(F)(F)F (stereo not drawn) [TRV-1361] | 88.9% |  |  | 
8 | CC(=O)c1cccc(-c2cc(N3CCCC3)c3nonc3c2)c1 [TRV-1362] | 41.4% |  |  | 
9 | OC(c1ccc(-c2cc(N3CCCC3)c3nonc3c2)s1)C(F)(F)F (stereo not drawn) [TRV-1364] |  |  |  | IC50: 1000 nM
10 | OC(c1ccc(-c2cc(N3CCCC3)c3nonc3c2)cc1)C(F)(F)F (stereo not drawn) [TRV-1365] |  |  |  | IC50: 920 nM
11 | OC(c1ccccc1-c1cc(N2CCCC2)c2nonc2c1)C(F)(F)F (stereo not drawn) [TRV-1366] |  |  |  | IC50: 3030 nM
12 | OC(c1cc(N2CCCC2)c2nonc2c1)C(F)(F)F (stereo not drawn) [TRV-1368] | 61.4% |  |  | 
13 | CN1CCN(c2cc(-c3cccc(C(O)C(F)(F)F)c3)cc3nonc23)CC1 (stereo not drawn) [TRV-1376] |  |  |  | IC50: 51700 nM
14 | CC(C)N(C)c1cc(-c2cccc(C(O)C(F)(F)F)c2)cc2nonc12 (stereo not drawn) [TRV-1377] |  |  |  | IC50: 1860 nM
15 | CN(Cc1ccccc1)c1cc(-c2cccc(C(O)C(F)(F)F)c2)cc2nonc12 (stereo not drawn) [TRV-1378] |  |  |  | IC50: 2380 nM
16 | OC(c1cccc(-c2cc(NCc3ccccc3)c3nonc3c2)c1)C(F)(F)F (stereo not drawn) [TRV-1380] |  | 57.1% |  | 
17 | OC(c1cccc(-c2cc(N3CCCCC3)c3nonc3c2)c1)C(F)(F)F (stereo not drawn) [TRV-1381] |  | 70.4% |  | 
18 | CCN(CC)c1cc(-c2cccc(C(O)C(F)(F)F)c2)cc2nonc12 (stereo not drawn) [TRV-1382] |  | 60% |  | 
19 | COCCN(C)c1cc(-c2cccc(C(O)C(F)(F)F)c2)cc2nonc12 (stereo not drawn) [TRV-1383] |  | 54.9% |  | 
20 | CCN(C)c1cc(-c2cccc(C(O)C(F)(F)F)c2)cc2nonc12 (stereo not drawn) [TRV-1384] |  | 72.4% |  | 
21 | OC(c1cccc(-c2cc(N3CCSCC3)c3nonc3c2)c1)C(F)(F)F (stereo not drawn) [TRV-1385] |  | 65.6% |  | 
22 | CN(Cc1ccc(F)cc1)c1cc(-c2cccc(C(O)C(F)(F)F)c2)cc2nonc12 (stereo not drawn) [TRV-1390] |  | 51% | 75% | 
23 | CN(Cc1ccccc1)c1cc(C(O)C(F)(F)F)cc2nonc12 (stereo not drawn) [TRV-1392] |  | 36% | 69% | 
24 | CN(Cc1ccc(F)cc1)c1cc(C(O)C(F)(F)F)cc2nonc12 (stereo not drawn) [TRV-1397] |  | 38% | 61% | 
25 | CN(Cc1ccc(F)cc1)c1cc(/C=C/C(O)(C(F)(F)F)C(F)(F)F)cc2nonc12 [TRV-1400] |  | 48% | 80% | 
26 | OC(c1cccc(-c2cc(N3Cc4ccccc4C3)c3nonc3c2)c1)C(F)(F)F (stereo not drawn) [TRV-1401] |  | 39% | 58% | 

Row | Compound | inhibition at 10 µM [1] | inhibition at 5 µM [2] | inhibition at 20 µM [3] | other results
27 | COC1CN(c2cc(-c3cccc(C(O)C(F)(F)F)c3)cc3nonc23)C1 (stereo not drawn) [TRV-1403] |  | 51% | 81% | 
28 | C#CCN(C)c1cc(-c2cccc(C(O)C(F)(F)F)c2)cc2nonc12 (stereo not drawn) [TRV-1404] |  | 39% | 69% | 
29 | CN(c1cc(-c2cccc(C(O)C(F)(F)F)c2)cc2nonc12)C1CC1 (stereo not drawn) [TRV-1405] |  | 46% | 76% | 
30 | OC1CN(c2cc(-c3cccc(C(O)C(F)(F)F)c3)cc3nonc23)C1 (stereo not drawn) [TRV-1406] |  | 53% | 83% | 
31 | CN(Cc1ccc(F)cc1)c1cc(/C=C/CO)cc2nonc12 [TRV-1409] |  | 50% | 69% | 
32 | COC1CCN(c2cc(-c3cccc(C(O)C(F)(F)F)c3)cc3nonc23)C1 (stereo not drawn) [TRV-1411] |  | 56% | 81% | 
33 | CN(Cc1ccccn1)c1cc(-c2cccc(C(O)C(F)(F)F)c2)cc2nonc12 (stereo not drawn) [TRV-1412] |  | 51% | 64% | 
34 | CN(Cc1cccnc1)c1cc(-c2cccc(C(O)C(F)(F)F)c2)cc2nonc12 (stereo not drawn) [TRV-1413] |  | 53% | 61.3% | 
35 | COc1ccc(CN(C)c2cc(-c3cccc(C(O)C(F)(F)F)c3)cc3nonc23)cc1 (stereo not drawn) [TRV-1414] |  | 53% | 69% | 
36 | COc1cc(CN(C)c2cc(-c3cccc(C(O)C(F)(F)F)c3)cc3nonc23)cc(OC)c1 (stereo not drawn) [TRV-1415] |  | 52% | 53% | 
37 | CN(Cc1ccc(F)cc1)c1cc(C(=O)C(F)(F)F)cc2nonc12 [TRV-1417] |  | 52% | 75% | 
38 | CC(=O)c1cc(N(C)Cc2ccc(F)cc2)c2nonc2c1 [TRV-1418] |  | 34% | 55% | 
39 | OC1(c2cc(N3Cc4ccccc4C3)c3nonc3c2)COC1 [TRV-1419] |  | 48% | 55% | 
40 | OC(c1cc(N2Cc3ccccc3C2)c2nonc2c1)C(F)(F)F (stereo not drawn) [TRV-1420] |  | 44% | 48% | 
41 | CC(O)/C=C/c1cc(N(C)Cc2ccc(F)cc2)c2nonc2c1 (stereo not drawn) [TRV-1427] | 41% |  |  | 
42 | OCC1CN(c2cc(-c3cccc(C(O)C(F)(F)F)c3)cc3nonc23)C1 (stereo not drawn) [TRV-1428] | 78% |  |  | 
43 | OC(c1cccc(-c2cc(N3CCC3)c3nonc3c2)c1)C(F)(F)F (stereo not drawn) [TRV-1432] | 51% |  |  | 
44 | CC1(O)CN(c2cc(-c3cccc(C(O)C(F)(F)F)c3)cc3nonc23)C1 (stereo not drawn) [TRV-1436] | 67% | 48% |  | 
45 | CCOC1CN(c2cc(-c3cccc(C(O)C(F)(F)F)c3)cc3nonc23)C1 (stereo not drawn) [TRV-1437] | 50% | 44% |  | 
46 | O=C(c1cccc(-c2cc(N3CCC3)c3nonc3c2)c1)N1CCNCC1 [TRV-1440] | 60% | 52% |  | 
47 | O=C(NC1CC1)c1cccc(-c2cc(N3CCC3)c3nonc3c2)c1 [TRV-1441] | 64% | 47% |  | 
48 | O=C(c1cccc(-c2cc(N3CCC3)c3nonc3c2)c1)N1CCOCC1 [TRV-1442] | 43% | 29% |  | 
49 | CN(Cc1ccc(F)cc1)c1cc(-c2cccc(C3(O)COC3)c2)cc2nonc12 [TRV-1446] | 50% | 29% |  | 
50 | CC(C)OC1CN(c2cc(-c3cccc(C(O)C(F)(F)F)c3)cc3nonc23)C1 (stereo not drawn) [TRV-1447] | 70% | 54% |  | 
51 | O=C(c1ccccc1)N1CCN(c2ccc([N+](=O)[O-])c(Nc3ccccc3)c2)CC1 [compound 1027, reference compound] |  | 33% | 69% | IC50: 10.5 µM (3×) and 14.7 µM and 22.1 µM (3×); % inhib. A β 40 (20 μM) [3]: 52% and 53% and 51%; % inhib Aβ 40 (3 μm) (compound 3 μm, DMSO control at 80 hr = 0% inhibition, parenthesis = compound 1027): 26%; % inhib Aβ 40 (5 μm) [2]: 38% and 33% (3×)
52 | CN(C)CCCN(C)c1cc(-c2cccc(C(O)C(F)(F)F)c2)cc2nonc12 (stereo not drawn) [compound 1463] | 62% | 43.8% |  | 
